The record followed here is US7064120B2, “Tricyclic pyridyl carboxamides and derivatives thereof tocolytic oxytocin receptor antagonists” (Wyeth, priority 2001, dated 2006).

SMILES strings stand for the structures.

T1 sequence (P30518 whole entry): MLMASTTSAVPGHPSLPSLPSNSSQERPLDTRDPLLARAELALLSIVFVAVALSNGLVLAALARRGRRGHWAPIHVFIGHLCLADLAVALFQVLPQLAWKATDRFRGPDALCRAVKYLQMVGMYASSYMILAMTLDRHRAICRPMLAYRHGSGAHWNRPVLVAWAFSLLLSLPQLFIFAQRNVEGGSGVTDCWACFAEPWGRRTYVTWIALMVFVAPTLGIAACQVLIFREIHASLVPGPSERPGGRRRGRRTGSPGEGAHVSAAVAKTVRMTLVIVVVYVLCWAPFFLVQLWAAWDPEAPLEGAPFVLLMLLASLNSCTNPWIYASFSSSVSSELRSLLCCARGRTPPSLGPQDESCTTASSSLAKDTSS

This assay concerns the target T1, human vasopressin V2 receptor subtype (Homo sapiens, UniProt P30518).
T1 construct: host or cells: CHO cells, stably transfected (pZeoSV vector)
In words: Vasopressin binding in CHO cell membranes expressing human vasopressin V2 subtype receptors ([3H]arginine vasopressin radioligand binding). The conditions noted are these: 100 nM. As for the experimental part: Vasopressin Binding in Chinese Hamster Ovary Cell Membranes Expressing Human Vasopressin V2 Subtype Receptors
Chinese Hamster Ovary (CHO) cells stably transfected with the human V2 subtype receptors were obtained from M. Thibonnier, Case Western Reserve University School of Medicine, Cleveland, Ohio.
The trypsin is removed by aspiration and the cells dislodged by tapping. Cell Culture medium (e.g. 30 mL for 1:30 split) is immediately added and mixed well to inactivate trypsin. 1 mL of detached cells is added to new culture flasks containing fresh Cell Culture medium (e.g. into 25 mL per T-150 flask), and mixed gently. The cells are incubated at 37° C. in 5% CO2. The medium is changed at 3 to 4 day interval (or as appropriate). […] All steps are done under sterile conditions.
The cells are washed twice gently with Hank's Balanced Salt solution (e.g. use 10 mL per T-150 flask). […] The contents are transferred to centrifuge tubes (50 mL) kept in ice bath. All subsequent steps are done at 4° C. The tubes are centrifuged at 300×g for 15 min (1380 rpm on SORVAL, Model RT6000D, using the rotor for 50 mL tubes). The supernatant is discarded and the cells suspended in homogenizing buffer(10 mM Tris-HCl containing 0.25 M sucrose and 1 mM EDTA, pH 7.4) ensuring that the volume of the buffer is about ten times the volume of the cell pellet. The cells are pooled into a centrifuge tube (50 mL) and homogenized with Polytron at setting 6 for 10 sec. The homogenate is transferred into a Potter-Elvjehm homogenizer and homogenized with 3 strokes. The homogenate is centrifuged at 1500×g for 60 min at 4° C. (3100 rpm using SORVAL, model RT6000D, using the rotor for 50 mL tubes). The pellet is discarded. The supernatant is centrifuged at 100,000×g for 60 min. at 4° C. (Beckman L8-80M ultracentrifuge; spin at 37,500 rpm with rotor type 70 Ti for 50 mL tubes; 38,000 rpm with type 80Ti for 15 mL tubes; or 35,800 rpm with rotor type 45Ti). The supernantant is discarded and the pellet suspended in 3 to 4 mL of Tris buffer (50 mM TRIS-HCl, pH 7.4). The protein content is estimated by the Bradford or Lowry method. The volume of the membrane suspension is adjusted with the membrane buffer (50 mM Tris-HCl containing 0.1% BSA and 0.1 mM PMSF) to give 3.0 mg/mL (or as appropriate) of protein. The membranes are aliquoted and stored at −70° C.
In wells of a 96-well format microtiter plate, is added 90, 110 or 130 μL (to make up a final volume of 200 μL) of assay buffer containing 50 mM of Tris-HCl (pH 7.4), […], 1 mg % aprotinin, 1 mg % leupeptin, 2 mg % 1,10-phenanthroline, 10 mg % trypsin inhibitor, and 0.1 mM PMSF. The inhibitors are added on the day of the experiment. The components are mixed at room temperature, and then kept in ice bath following adjustment of the pH to 7.4. […] For vasopressin and other peptide ligands 20 μL of 50% DMSO is added and the assay buffer volume is adjusted accordingly. To each well is added 50 μL of frozen membrane suspension thawed immediately prior to use and diluted in assay buffer to the required concentration (equivalent to 25 to 50 μg of protein/well as needed). 20 μL of 8 nM [^3H]arginine vasopressin ligand in the assay buffer, prepared just before use is added and incubated at room temperature for 60 min. shaking the plate on a mechanical shaker for the first 15 min. The incubation is stopped by rapid filtration of the plate contents followed by wash with ice-cold buffer (50 mM Tris-HCl, pH 7.4) using a cell harvester (Tomtek and Printed filtermat-B filter paper). The filter paper is thoroughly dried (7–12 min. in a microwave oven) and impregnated with MeltiLex B/H melt-on scintillation wax sheets and the radioactivity counted in a betaplate scintillation counter.
Binding data is either reported as percent inhibition at a certain concentration or if an IC50 was calculated, as a nanomolar concentration.
In the case of `O=C(c1ccc2n1Cc1ccccc1N(C(=O)c1ccc(-c3cccc4ccccc34)cc1Cl)C2)N1CCN(c2ccncc2)CC1` [Example 124, {10-[2-Chloro-4-(naphthalen-1-yl)benzoyl]-10,11-dihydro-5H-pyrrolo[2,1-c][1,4]benzodiazepin-3-yl}[4-(4-pyridinyl)-1-piperazinyl]methanone], the inhibition at 0.1 µM turned out to be 18%.

Consider `COc1ccccc1-c1ccc(C(=O)N2Cc3ccc(C(=O)N(C)CCc4ccccn4)n3Cc3ccccc32)cc1OC` [Example 64, 10-[(2,2′-Dimethoxy-[1,1′-biphenyl]-4-yl)carbonyl]-N-methyl-N-[2-(2-pyridinyl)ethyl]-10,11-dihydro-5H-pyrrolo[2,1-c][1,4]benzodiazepine-3-carboxamide], for which the inhibition at 0.1 µM was found to be 13%.

On to `COc1cc(C(=O)N2Cc3ccc(C(=O)N(C)CCc4ccccn4)n3Cc3ccccc32)ccc1-n1c(C)ccc1C` [Example 144, 10-[4-(2,5-Dimethyl-1H-pyrrol-1-yl)-3-methoxybenzoyl]-N-methyl-N-[2-(pyridin-2-yl)ethyl]-10,11-dihydro-5H-pyrrolo[2,1-c][1,4]benzodiazepine-3-carboxamide], for which at 0.1 µM the inhibition was 2%.

`COc1cc(C(=O)N2Cc3ccc(C(=O)N4CCN(c5ccccn5)CC4)n3Cc3ccccc32)ccc1-n1c(C)ccc1C` [Example 145, {10-[4-(2,5-Dimethyl-1H-pyrrol-1-yl)-3-methoxybenzoyl]-10,11-dihydro-5H-pyrrolo[2,1-c][1,4]benzodiazepin-3-yl}[4-(pyridin-2-yl)-1-piperazinyl]methanone] came in with an inhibition at 0.1 µM of 2%.

Take `COc1ccccc1-c1ccc(C(=O)N2Cc3ccc(C(=O)NCCc4ccccn4)n3Cc3ccccc32)cc1OC` [Example 58, 10-[(2,2′-Dimethoxy-[1,1′-biphenyl]-4-yl)carbonyl]-N-[2-(2-pyridinyl)ethyl]-10,11-dihydro-5H-pyrrolo[2,1-c][1,4]benzodiazepine-3-carboxamide]: the inhibition at 0.1 µM is 22%.

The compound `COc1cc(C(=O)N2Cc3ccc(C(=O)NCc4cccnc4)n3Cc3ccccc32)ccc1-c1cccc2ccccc12` [Example 44, 10-[3-Methoxy-4-(naphthalen-1-yl)benzoyl]-N-(3-pyridinylmethyl)-10,11-dihydro-5H-pyrrolo[2,1-c][1,4]benzodiazepine-3-carboxamide] had an inhibition at 0.1 µM of 31%.

In the case of `COc1cc(C(=O)N2Cc3ccc(C(=O)NCc4ccccn4)n3Cc3ccccc32)ccc1-c1cccc2ccccc12` [Example 31, 10-[3-Methoxy-4-(naphthalen-1-yl)benzoyl]-N-(2-pyridinylmethyl)-10,11-dihydro-5H-pyrrolo[2,1-c][1,4]benzodiazepine-3-carboxamide], 0.1 µM produced 31% inhibition.

Turning to `COc1cc(C(=O)N2Cc3ccc(C(=O)N4CCN(c5ccccn5)CC4)n3Cc3ccccc32)ccc1-c1cccc2ccccc12` [Example 83], the “V2 % inhibition @ 100 nM” value is 22%.

Consider `COc1cccc(-c2ccc(C(=O)N3Cc4ccc(C(=O)NCc5ccccn5)n4Cc4ccccc43)cc2C)c1` [Example 25, 10-[(3′-Methoxy-2-methyl-[1,1′-biphenyl]-4-yl)carbonyl]-N-(2-pyridinylmethyl)-10,11-dihydro-5H-pyrrolo[2,1-c][1,4]benzodiazepine-3-carboxamide], for which the inhibition at 0.1 µM worked out at 33%.

`COc1cccc(-c2ccc(C(=O)N3Cc4ccc(C(=O)N5CCN(c6ccncc6)CC5)n4Cc4ccccc43)cc2C)c1` [Example 115, {10-[(3′-Methoxy-2-methyl-[1,1′-biphenyl]-4-yl)carbonyl]-10,11-dihydro-5H-pyrrolo[2,1-c][1,4]benzodiazepin-3-yl}[4-(4-pyridinyl)-1-piperazinyl]methanone] displayed an inhibition at 0.1 µM of 8%.

Take `COc1cc(-c2ccccc2C)c(Cl)cc1C(=O)N1Cc2ccc(C(=O)N(C)CCc3ccncc3)n2Cc2ccccc21` [Example 132, 10-[(6-Chloro-3-methoxy-2′-methyl-[1,1′-biphenyl]-4-yl)carbonyl]-N-methyl-N-[2-(4-pyridinyl)ethyl]-10,11-dihydro-5H-pyrrolo[2,1-c][1,4]benzodiazepine-3-carboxamide]: at 0.1 µM the inhibition was 25%.

By inhibition is commonly meant the percentage by which the read-out fell short of the control.
